Results: PMC9917443 (eLife, 2023)

Columns and labels:
[1] = biological target: T1, GB1a/2 receptors (Homo sapiens, UniProt O75899+Q9UBS5); test: BRET assay of G protein activation (Gαo-RLuc / Venus-Gγ2) in HEK293T cells; format: cell-based; parameters: Flag (N); expressed in transfected cells; host or cells: HEK293T cells stably expressing chimeric Gαqi; details: GABA or CGP54626, 10 μM
Method: We directly tested whether APP17 influences G protein activation by GBRs in transfected HEK293T cells. […] HEK293T cells were transiently transfected with Flag-GB1a, Flag-GB2, Gαo-RLuc, Gβ2, and Venus-Gγ2 plasmids with or without APP695. In order to ensure APP695 binding to GB1a/2 in trans a pool of HEK293T cells expressing APP695 was mixed with a pool of HEK293T cells expressing Flag-GB1a, Flag-GB2, Gαo-RLuc, Gβ2, and Venus-Gγ2. Transfected cells were seeded into 96-well microplates (Greiner Bio-One) at 100,000 cells/well. After 18 hr, cells were washed and coelenterazine h (5 µM, NanoLight Technologies, Prolume Ltd., Pinetop-Lakeside, AZ, USA) added for 5 min. […] BRET ratios were adjusted by subtracting the ratios obtained when RLuc fusion proteins were expressed alone. Each data point represents a technical quadruplicate.

[2] = biological target: T1, GB1a/2 receptors; test: SRE-luciferase accumulation assay (Gαqi/PLC) in HEK293T-Gαqi cells; details: constitutive and GABA-induced FLuc activity
[3] = biological target: T1, GB1a/2 receptors; test: PKA luminescence assay (R-RLuc-N / C-RLuc-C) of Gαi signaling in HEK293T cells; details: GABA 10 μM or CGP54626 10 μM; forskolin
[4] = test system: mGlu5 receptors; test: Ca^2+ mobilization assay (Calcium 6) in HEK293T cells expressing mGlu5; format: cell-based; details: 1 and 10 µM

T1 sequence (Q9UBS5 15-961 limits assumed): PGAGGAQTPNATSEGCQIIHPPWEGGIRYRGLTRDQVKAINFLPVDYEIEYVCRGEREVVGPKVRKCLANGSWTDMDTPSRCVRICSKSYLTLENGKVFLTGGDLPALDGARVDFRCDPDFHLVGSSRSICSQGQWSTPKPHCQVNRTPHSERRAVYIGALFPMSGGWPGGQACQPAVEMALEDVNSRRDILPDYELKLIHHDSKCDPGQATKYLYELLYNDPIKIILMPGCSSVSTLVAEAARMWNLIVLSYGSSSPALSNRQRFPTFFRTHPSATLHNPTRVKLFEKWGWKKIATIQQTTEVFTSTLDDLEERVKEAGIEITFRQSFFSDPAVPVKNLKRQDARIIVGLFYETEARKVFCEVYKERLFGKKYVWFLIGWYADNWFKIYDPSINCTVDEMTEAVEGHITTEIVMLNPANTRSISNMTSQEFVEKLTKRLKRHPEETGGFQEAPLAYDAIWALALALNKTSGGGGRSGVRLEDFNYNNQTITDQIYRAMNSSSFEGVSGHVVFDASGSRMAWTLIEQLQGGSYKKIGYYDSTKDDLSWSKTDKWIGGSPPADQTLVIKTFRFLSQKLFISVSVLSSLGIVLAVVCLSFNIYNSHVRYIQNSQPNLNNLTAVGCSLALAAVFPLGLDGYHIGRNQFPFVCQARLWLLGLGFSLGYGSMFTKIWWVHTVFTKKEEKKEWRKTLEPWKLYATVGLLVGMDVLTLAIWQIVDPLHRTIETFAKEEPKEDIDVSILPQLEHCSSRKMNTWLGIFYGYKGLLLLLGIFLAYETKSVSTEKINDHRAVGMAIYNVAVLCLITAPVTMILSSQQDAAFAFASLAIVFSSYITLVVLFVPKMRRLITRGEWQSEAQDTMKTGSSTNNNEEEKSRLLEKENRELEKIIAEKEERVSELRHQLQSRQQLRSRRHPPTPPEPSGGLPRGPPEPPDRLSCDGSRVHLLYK
T1 sequence (O75899 42-941 partner): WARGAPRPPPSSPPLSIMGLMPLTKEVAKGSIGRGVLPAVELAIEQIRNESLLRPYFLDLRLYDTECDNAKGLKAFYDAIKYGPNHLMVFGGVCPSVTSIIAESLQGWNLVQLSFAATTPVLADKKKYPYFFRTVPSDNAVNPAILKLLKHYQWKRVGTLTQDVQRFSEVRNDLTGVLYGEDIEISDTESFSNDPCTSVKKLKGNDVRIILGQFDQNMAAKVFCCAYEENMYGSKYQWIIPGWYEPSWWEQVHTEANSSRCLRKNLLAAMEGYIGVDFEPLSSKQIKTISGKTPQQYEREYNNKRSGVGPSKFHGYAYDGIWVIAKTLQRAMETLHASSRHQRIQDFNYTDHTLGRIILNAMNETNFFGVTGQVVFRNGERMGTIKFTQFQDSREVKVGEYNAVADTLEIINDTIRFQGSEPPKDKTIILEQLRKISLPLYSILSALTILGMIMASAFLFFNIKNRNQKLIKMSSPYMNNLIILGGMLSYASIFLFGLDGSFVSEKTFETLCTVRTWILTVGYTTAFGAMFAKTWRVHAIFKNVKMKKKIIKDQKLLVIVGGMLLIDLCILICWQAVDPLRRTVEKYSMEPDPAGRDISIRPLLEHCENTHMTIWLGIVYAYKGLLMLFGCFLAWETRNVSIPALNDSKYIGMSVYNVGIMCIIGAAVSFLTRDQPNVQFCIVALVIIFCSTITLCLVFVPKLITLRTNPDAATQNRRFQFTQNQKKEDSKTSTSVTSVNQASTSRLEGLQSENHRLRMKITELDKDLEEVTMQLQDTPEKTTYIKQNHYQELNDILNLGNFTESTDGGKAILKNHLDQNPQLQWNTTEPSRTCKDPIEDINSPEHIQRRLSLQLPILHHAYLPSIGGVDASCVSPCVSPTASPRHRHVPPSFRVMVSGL

| BRET change by receptor ligand (in words) [1] | luminescence change by receptor ligand (in words) [3] | SMILES | block of receptor activity (in words) [2] | intracellular Ca^2+ mobilization (in words) [4] |
| --- | --- | --- | --- | --- |
| increased BRET above baseline | decreased luminescence below baseline | C[C@H](NC[C@H](O)CP(=O)(O)CC1CCCCC1)c1ccc(Cl)c(Cl)c1 [CGP54626] | blocked constitutive and GABA-induced receptor activity | – |
| – | – | N[C@H](C(=O)O)c1cc(O)cc(O)c1 [DHPG] | – | concentration-dependent increase in intracellular Ca^2+ |
